The results in this text go back to patent publication US7736646B2, “Methods for modulating angiogenesis with apelin compositions” (Arizona Board of Regents on behalf of the University of …, priority 2003, dated 2010).

In test [1] the test system is primary rat cardiomyocyte cells. The test can be described thus: Cobalt chloride hypoxia-mimic treatment, transcript levels by PCR. The test is classed as cell-based. The note with it: 150 μM, 4 hours, versus untreated cells. How it is done: Because HIF-1α consensus sites are present in the apelin regulatory region, experiments were conducted to determine whether apelin expression is hypoxia responsive and regulated by HIF-1α. Upregulation of apelin expression under hypoxic conditions would be consistent with a role for apelin in promotion of tumor angiogenesis. Preliminary experiments were carried out using primary rat cardiomyocyte cells in culture and treatment with cobalt chloride. This procedure is accepted as an equivalent to culturing cells under hypoxic conditions because HIF-1α is a metal responsive transcription protein (Ladoux and Frelin, 1994; Piret et al., 2002; Maxwell and Salnikow, 2004). Fetal rat cardiac myocytes were plated and cultured in DMEM (Invitrogen, Carlsbad, Calif.) supplemented with 10% fetal calf serum and penicillin/streptomyocin at 37° C. After four days of culture, medium was removed, and cells were treated with fresh media containing 150 μM Cobalt Chloride (Piret et al., 2002). […] After 4 hours of culture, cells were harvested, and total RNA was extracted using the Trizol procedure according to the manufacturers recommendations (Invitrogen, Carlsbad, Calif.).
Following PCR, amplification products were fractionated on an agarose gel and visualized using ethidium bromide staining under ultraviolet light (FIG. 12).

The subject of test [2] is BAE/APJ#2 cells. The test can be described thus: Endothelial cell proliferation assay (BrdU incorporation). The test is classed as cell-based, bovine. The procedure: SU1498 was included in proliferation cultures at a concentration of 10 ng/ml and results were assayed using BrdU incorporation. After growth factor incubation, BrdU was added to each well at a final concentration of 10 μM for 2 hours, cells were washed, and fixed for BrdU immunocytochemistry.
Cells were fixed in 100% ice cold methanol at 4° C. for 2 hours to overnight. Prior to staining, cells were air dried and rehydrated for 3 minutes with PBS buffer. DNA was denatured at 37° C. with 2 M HCl, and neutralized with 2 washes for 5 minutes in 0.1 M borate buffer (pH 8.5). […] FITC-labeled anti-BrdU antibody (5 μg/ml) in block was added for 1 hour at room temperature. Cells were counterstained with propidium iodide following several washes in PBS buffer. For each experiment, 4 random fields were photographed for determination of percentage BrdU labeling.
For orientation: Incorporation of labelled thymidine or its analogues reports DNA synthesis.

Test [3] relates to BAE/APJ#2 cells. The note with it: 10 ng/ml in bottom chamber, 16 hours. How it is done:
Bovine aortic endothelial cells (BAE) were cultured in DMEM supplemented with 10% fetal bovine serum (FBS) and penicillin/streptomycin. For generation of stable cell lines expressing APJ, the mouse APJ coding region was cloned into the pcDNA 3.1 vector downstream of the CMV promoter, in frame with a myc epitope at the C-terminal end of the protein, and upstream of the neomycin gene. […] Colonies were isolated and screened using RT-PCR for expression of mouse APJ and also by immunocytochemistry for expression of the myc epitope.
Cell migration assays were performed using Transwell cell culture migration chambers (Becton Dickinson) with 8 micron pore size. BAE/APJ#2 cells were plated in serum free conditions in 100 μl at a concentration of 1×10^5 ml in the upper chamber of the migration chamber. Following cell attachment to the membrane, 10 ng/ml of growth factor was added to the bottom chamber, in a total volume of 0.5 ml. Cells were stimulated with growth factor in DMEM for 16 hours, or DMEM alone, at which time the cells remaining in the upper chamber were removed using a cotton tip applicator. Following a brief wash with PBS the remaining cells were fixed in 3.7% formaldehyde at 4° C. for 1 hour. Cells attached to the membrane in the lower chamber were stained with DAPI, and 3 random fields were counted for each experimental condition.

Test [4] deals with chicken chorioallantoic membrane (CAM). The following applies: 50 ng on filter disc, three days, compared to control PBS. How it is done:
Chicken eggs were incubated at 37° C. in a humidified chamber. On day 10 of development, a small window was made in the outer shell of the egg, and the CAM was released from its attachment to the inner shell membrane. A larger window was then made in the egg to allow for addition of the filter paper containing growth factor. Filter discs (3MM Whatman) of 7-8 mm diameter were pretreated with 10 μl of 0.1% cortisone acetate (Sigma) solution to avoid inflammation of the CAM. The filter discs were air dried prior to application of growth factors. […] After air-drying, the filter discs were placed on the CAM, and eggs were returned to the incubator for three days. Filter discs and the attached CAM were then excised, washed with PBS, trimmed to the size of the disc, and photographed for quantitative analysis (FIGS. 7A and 7B). The number of vessel branch points was determined using a blind protocol. The results are shown as the mean of three independent experiments +/−s.e.m. (FIG. 7C).

As to `[Cl][Co][Cl]` [Cobalt Chloride], the “apelin expression (transcript level, PCR)” value in test [1] is recorded as “significantly increased”.

As for `CC(C)c1cc(/C=C(\C#N)C(=O)NCCCc2ccccc2)cc(C(C)C)c1O` [SU1498, reference compound], the “effect on VEGF-mediated proliferation” value in the test with BAE/APJ#2 cells [2] (SU1498 10 ng/ml, VEGF 10 ng/ml) is recorded as “partially inhibits”. In addition, in the test with BAE/APJ#2 cells [2] (SU1498 10 ng/ml, apelin 10 ng/ml), the “effect on apelin-mediated proliferation” value is reported as “no significant effect”.

VEGF [reference compound]: the “endothelial cell migration (cells per field)” value in the test with BAE/APJ#2 cells [3] is recorded as “increase in migration”.

Regarding apelin-13, in test [4], the “blood vessel formation in the CAM” value was “increased” and the “leakage of blood vessels in the CAM” value is on record as “increased”. Further, the “endothelial cell migration (cells per field)” value in the test with BAE/APJ#2 cells [3] was “promotes endothelial cell migration”. In addition, the “endothelial cell proliferation (percentage BrdU labeling)” value in the test with BAE/APJ#2 cells [2] (10 ng/ml, 24 hours, serum starved cells) is recorded as “promotes endothelial cell proliferation to a similar extent as VEGF”. Moreover, in the test with BAE/APJ#2 cells [2] (apelin 10 ng/ml with SU1498 10 ng/ml), the “endothelial cell proliferation in the presence of the VEGF inhibitor SU1498” value is recorded as “still able to promote proliferation”.
